Assay results published in ChEMBL document CHEMBL5104182, “Design and Synthesis of a 2-Amino-pyridine Derivative as a Potent CDK8 Inhibitor for Anti-colorectal Cancer Therapy” (J Med Chem, 2022).
Calls of active or inactive are those of the source. No cut-off for these calls is given here.

Tests used:
[1] = Tmax in Sprague-Dawley rat at 10 mg/kg, po upto 24 hrs by HPLC analysis; type: ADME, organism-based; details: in vivo
[2] = test system: HCT-116; experiment: Antiproliferative activity against sorafenib-resistant human HCT-116 cells assessed as cell viability incubated for 48 hrs by MTT assay; type: functional
[3] = organism: Homo sapiens; experiment: Selectivity ratio of IC50 for human CDK6 to IC50 for human CDK8
[4] = target: T1, Cyclin-dependent kinase 8 (Homo sapiens, UniProt P49336); experiment: Binding affinity to CDK8 in human HCT-116 cells by measuring competition with biotinylated (1-(4-((6-aminopyridin-3-yl)oxy)phenyl)-3-(3-(trifluoromethyl)-phenyl)urea hydrochloride); type: cell-based
T1 sequence (P49336 whole entry): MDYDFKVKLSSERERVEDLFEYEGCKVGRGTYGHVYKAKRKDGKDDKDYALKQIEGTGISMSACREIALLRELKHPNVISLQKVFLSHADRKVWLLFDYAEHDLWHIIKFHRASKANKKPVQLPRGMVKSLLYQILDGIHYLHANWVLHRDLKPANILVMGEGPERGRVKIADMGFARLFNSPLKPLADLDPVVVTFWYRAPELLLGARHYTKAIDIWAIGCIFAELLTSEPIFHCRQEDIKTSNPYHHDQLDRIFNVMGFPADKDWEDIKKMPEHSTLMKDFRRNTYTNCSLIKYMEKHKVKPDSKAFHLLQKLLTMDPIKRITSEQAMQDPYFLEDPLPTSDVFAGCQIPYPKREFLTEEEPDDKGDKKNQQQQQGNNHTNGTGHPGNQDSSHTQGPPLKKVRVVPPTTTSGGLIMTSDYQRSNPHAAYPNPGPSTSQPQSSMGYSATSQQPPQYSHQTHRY

[5] = target: T1, Cyclin-dependent kinase 8; experiment: Binding affinity to CDK8 in human HCT-116 cells assessed as increase in degradation temperature of protein by CETSA (reference value: 49 degC); type: cell-based
[6] = test system: HCT-116; experiment: Reduction in P-gp expression in sorafenib-resistant human HCT-116 cells by Western blot analysis; type: functional, cell-based; details: dose 1-4 µM, DDE = dose-dependent effect
[7] = AUC (0 to infinitive) in Sprague-Dawley rat at 10 mg/kg, po upto 24 hrs by HPLC analysis; type: ADME, organism-based; design: dose 10 mg/kg, time < 24 hrs, route po; details: in vivo
[8] = test system: HCT-116; experiment: Decrease in C-Myc expression in human HCT-116 cells at 1 to 4 uM incubated for 48 hrs by western blotting analysis; type: functional, cell-based; details: dose 1-4 µM
[9] = test system: HCT-116; experiment: Decrease in WNT-3alpha expression in human HCT-116 cells at 1 to 4 uM incubated for 12hrs by western blotting analysis; type: functional, cell-based; details: dose 1-4 µM
[10] = test system: HCT-116; experiment: Induction of cell cycle arrest in human HCT-116 cells assessed as increase in cells at S phase measured after 48 hrs by flow cytometry; type: functional, cell-based
[11] = test system: HCT-116; experiment: Decrease in Cyclin D1 expression in human HCT-116 cells at 1 to 4 uM incubated for 48 hrs by western blotting analysis; type: functional, cell-based; details: dose 1-4 µM
[12] = MRT in Sprague-Dawley rat at 10 mg/kg, po upto 24 hrs by HPLC analysis; type: ADME, organism-based; details: in vivo
[13] = test system: CT26; experiment: In vivo inhibition of CDK8 in mouse CT26 cells transplanted in […] mouse assessed as downregulation of c-Myc in tumor at 10 to 40 mg/kg, po daily measured after 21 days; type: functional, organism-based; details: dose 10-40 mg/kg, time 21.0 day

Tmax [1]: 0.8 h
GI50 [2]: 17.5 µM
Ratio IC50 [3]: 2
Activity [4]: Active
Tm [5]: 55 °C
AUC(0-inf) [7]: 665 ng·h/mL
MRT [12]: 1.6 h
Structure (SMILES): Nc1ccc(Oc2ccc(NC(=O)Nc3cccc(C(F)(F)F)c3)cc2)cn1
Activity [6]: Dde
Activity [8]: Active
Activity [9]: Active
Activity [10]: Active
Activity [11]: Active
Activity [13]: Active
